Reference: publication PMC6891598, “Application of N-Dodecyl L-Peptide to Enhance Serum Stability while Maintaining Inhibitory Effects on Myometrial Contractions Ex Vivo” (Molecules, 2019)
Entries after “also recorded” stand apart in the source; their conditions may differ. Counter-ions that a name gives are not always drawn. Residues, ends and D or L forms follow the SMILES beside them.

Assays:
[1] = test system: murine myometrial tissue (PGF2α-induced contractions; FP); assay: ex vivo mouse myometrial tissue contraction assay (PGF2α-induced); parameters: species or system mouse (CD-1); settings: post-partum CD-1 mouse myometrial strips, Krebs buffer pH 7.4, 37 °C, 20 min pretreatment with peptide at two concentrations, then PGF2α; 4–6 experiments per group, means ± SEM, t-test, p < 0.05 vs vehicle
Method: All the peptides were initially tested in an ex vivo mouse myometrial tissue contraction assay. Contractile activity was measured on tissue that was harvested post-partum and treated with prostaglandin F2α (PGFα) alone (control) or in the presence of peptides L-4b-4g, L-7, and L-8. […] Mean tension induced by KCl (as a positive control) was not affected by L-4d.
Pregnant CD-1 mice (16-17 days gestation, term 19 days) were obtained from Charles River Inc. and used according to a protocol of the Animal Care Committee of Hôpital Sainte-Justine according to the principles of the Guide for the Care and Use of Experimental Animals of the Canadian Council on Animal Care. The animals were maintained on standard laboratory chow under a 12:12 light:dark cycle and allowed free access to chow and water.
The uterus from the CD-1 mouse was obtained from the animal immediately after term delivery under anesthesia (2.5% isoflurane). Briefly, a midline abdominal incision was made and the uterine horns were rapidly excised, cleansed carefully of the surrounding connective tissues, and removed. Longitudinal myometrial strips (2 to 3 mm wide and 1 cm long) were dissected free from the uterus and mounted isometrically in organ tissue baths. The initial tension was set at 2 g. The tissue baths contained 20 mL of Krebs buffer of the following composition (in mM): 118 NaCl, 4.7 KCl, 2.5 CaCl2, 0.9 MgSO4, 1 KH2PO4, 11.1 glucose, and 23 NaHCO3 (pH 7.4). The buffer was equilibrated with 95% oxygen/5% carbon dioxide at 37 °C. Isometric tension was measured by a force transducer and recorded by a BIOPAC data acquisition system (BIOPAC MP150, Montreal, PQ, Canada). Experiments were begun after 1 h equilibration. Mean tension of spontaneous contractions was measured using a BIOPAC digital polygraph system (AcqKnowledge); the same parameters were also determined after addition of PGF2α in the presence or the absence of a 20 min-pretreatment with different FP inhibitors. At the start of each experiment, mean tension of spontaneous myometrial contractions was considered as a reference response. Changes in mean tension (g) were expressed as percentages of the initial reference response (% of baseline).
At the start of each experiments, mean tension of spontaneous myometrial contractions was considered as a reference response. Increase in mean tension (%) was expressed as percentages of (X/Y)-100, where X is the change in mean tension (g) induced by PGF2α and Y is the initial reference response (g). Data are representative of 4–6 experiments per treated group. All results are expressed as means ± SEM and were compared by Independent t-tests. Statistical tests were performed with GraphPad Prism 4.3 software and p < 0.05 was considered statistically significant.

[2] = solubility in water (observation on handling); type: physicochemical; settings: qualitative observation on the purified, freeze-dried peptide
Method: Linear sequences of L- and D-PDC31 linked to 2-chlorotrityl resin (L- and D-1) were obtained by solid phase peptide synthesis using standard Fmoc/t-Bu protocols. Peptide resin L-1 was treated with the appropriate aldehyde 2 (Scheme 1). The imine resin was washed to remove excess aldehyde, and reductive amination was performed using sodium cyanoborohydride to provide secondary amine resin 3. Removal of the protecting groups and resin cleavage were achieved using a cocktail of 95:2.5:2.5 TFA:TES:H2O to provide N-alkyl- and N-PEG-grafted peptides 4, which were purified by RP-HPLC (Table 1). […] An inseparable mixture of mono- and bis-N-alkyl peptides was isolated by HPLC from reaction with aldehyde of shorter chain length.
Increased lipophilic character may promote peptide aggregation and decrease solubility in aqueous solvent. […] For biological assays, solubility issues were surmounted by forming salts and using small amounts of DMSO. The influence of their amphiphilic character during purification by RP-HPLC and double alkylation from the reductive amination sequence may account for the lower isolated yields of peptides 4, 7 and 8.

[3] = test system: prostaglandin F2α receptor (FP); settings: cited from earlier work
Method: The development of PDC31 originated from a library of sequences based on the second extracellular loop of FP. Short lead peptides were analyzed initially using in vitro and ex vivo analyses. […] Moreover, addition of the dodecyl chain enhanced plasma stability.

[4] = serum stability study (mouse serum/plasma, MS/MS); type: in vitro ADME; settings: mouse plasma (method: serum), 37 °C, LC-MS/MS, internal standard L-4f
Method: Peptide L-4d was further examined for stability in serum and compared to L-PDC31. The two peptides were incubated at 37 °C in mouse plasma. Aliquots were removed at different time intervals and analyzed by mass spectrometry (MS/MS) to detect remaining amount of peptide (Figure 3).
Serum was […] and kept on ice throughout the procedure. Two blanks were prepared by adding 5 µL of DMSO to 95 µL of serum. These were incubated for 2 h and submitted to the same treatment as the other samples. Two series of vials containing 95 µL of serum were prepared and spiked with either 5 µL of L-PDC31 [0.4 mM] or L-4d [0.4 mM], and incubated for 120, 60, 30, 15, 10 and 5 min, respectively, after which 100 µL of 4% phosphoric acid was added. Two vials were also spiked with 5 µL L-PDC31 and L-4d, respectively, and immediately treated with phosphoric acid (time = 0 min). The vials were incubated for 5 min at 95 °C, cooled on ice for 2 min, treated with 600 µL of cold MeCN containing L-4f (0.02 mM) as internal standard, and incubated at –20 °C overnight. After the incubation period, the vials were vortexed for 2 min and centrifuged at 4 °C for 15 min. The supernatant was transferred into LC-MS vials and analyzed.
Results were expressed as: (AN/IS/AN0/IS0)∗100
AN and IS refer, respectively, to the analyte and internal standard MS signals. Both values are compared with initial injection at which time AN0 and IS0 were not incubated.

| Compound | effect on PGF2α-induced contractions (mean tension) of myometrial tissue [1] | solubility in water [2] | other results |
| --- | --- | --- | --- |
| CCCCCCCCCCCCN[C@@H](C(=O)N[C@H](CC(C)C)C(=O)NCC(=O)N[C@H](Cc1c[nH]cn1)C(=O)N[C@H](CCCNC(N)=O)C(=O)N[C@H](CC(=O)O)C(=O)N[C@H](Cc1ccc(O)cc1)C(=O)N[C@H](CCCCN)C(=O)O)[C@H](C)CC [D-4d, N-Dodecyl-D-Ile-D-Leu-Gly-D-His-D-Cit-D-Asp-D-Tyr- D-Lys-OH] (HELM PEPTIDE1{[CCCCCCCCCCCCN[C@@H](C(=O)[*:2])[C@H](C)CC].[dL].G.[dH].[NC(=O)NCCC[C@@H](N[*:1])C(=O)[*:2]].[dD].[dY].[dK]}$$$$V2.0) | trends suggesting protective effects; also recorded: lower potency than the unmodified D-peptide, PDC-31 |  |  |
| CCCCCCN[C@H](C(=O)N[C@@H](CC(C)C)C(=O)NCC(=O)N[C@@H](Cc1c[nH]cn1)C(=O)N[C@@H](CCCNC(N)=O)C(=O)N[C@@H](CC(=O)O)C(=O)N[C@@H](Cc1ccc(O)cc1)C(=O)N[C@@H](CCCCN)C(=O)O)[C@@H](C)CC [L-4b, N-Hexanyl-Ile-Leu-Gly-His-Cit-Asp-Tyr-Lys-OH] (HELM PEPTIDE1{[CCCCCCN[C@H](C(=O)[*:2])[C@@H](C)CC].L.G.H.[Cit].D.Y.K}$$$$V2.0) | trends suggesting protective effects; also recorded: not statistically significant |  |  |
| CC[C@H](C)[C@H](NCCOCCOCCOCCOC)C(=O)N[C@@H](CC(C)C)C(=O)NCC(=O)N[C@@H](Cc1c[nH]cn1)C(=O)N[C@@H](CCCNC(N)=O)C(=O)N[C@@H](CC(=O)O)C(=O)N[C@@H](Cc1ccc(O)cc1)C(=O)N[C@@H](CCCCN)C(=O)O [L-4g, N-2,7,8,11-tetraoxytetradecane-Ile-Leu-Gly-His-Cit-Asp-Tyr-Lys-OH] (HELM PEPTIDE1{[CC[C@H](C)[C@H](NCCOCCOCCOCCOC)C(=O)[*:2]].L.G.H.[Cit].D.Y.K}$$$$V2.0) | Neither PEGylated peptide L-4g nor N-farnesyl peptide L-7 exhibited activity |  |  |
| CCCCCCCCCCCC(=O)N[C@H](C(=O)N[C@@H](CC(C)C)C(=O)NCC(=O)N[C@@H](Cc1c[nH]cn1)C(=O)N[C@@H](CCCNC(N)=O)C(=O)N[C@@H](CC(=O)O)C(=O)N[C@@H](Cc1ccc(O)cc1)C(=O)N[C@@H](CCCCN)C(=O)O)[C@@H](C)CC [L-8 HCl salt] (HELM PEPTIDE1{[CCCCCCCCCCCC(=O)[*:2]].I.L.G.H.[Cit].D.Y.K}$$$$V2.0) |  |  | solubility in water ([2]; listed as 8 hydrochloride salt): dissolved readily in water |
| CCCCCCCCCCCC(=O)N[C@H](C(=O)N[C@@H](CC(C)C)C(=O)NCC(=O)N[C@@H](Cc1c[nH]cn1)C(=O)N[C@@H](CCCNC(N)=O)C(=O)N[C@@H](CC(=O)O)C(=O)N[C@@H](Cc1ccc(O)cc1)C(=O)N[C@@H](CCCCN)C(=O)O)[C@@H](C)CC [L-8, N-Dodecanoyl-Ile-Leu-Gly-His-Cit-Asp-Tyr-Lys-OH] (HELM PEPTIDE1{[CCCCCCCCCCCC(=O)[*:2]].I.L.G.H.[Cit].D.Y.K}$$$$V2.0) | inactive | poor solubility; also recorded: aqueous solubility issues |  |
| CCCCCCCCCCCCCN[C@H](C(=O)N[C@@H](CC(C)C)C(=O)NCC(=O)N[C@@H](Cc1c[nH]cn1)C(=O)N[C@@H](CCCNC(N)=O)C(=O)N[C@@H](CC(=O)O)C(=O)N[C@@H](Cc1ccc(O)cc1)C(=O)N[C@@H](CCCCN)C(=O)O)[C@@H](C)CC [L-4e, N-Tridecanyl-Ile-Leu-Gly-His-Cit-Asp-Tyr-Lys-OH] (HELM PEPTIDE1{[CCCCCCCCCCCCCN[C@H](C(=O)[*:2])[C@@H](C)CC].L.G.H.[Cit].D.Y.K}$$$$V2.0) |  | Except for peptide 4e, bearing the 18-carbon alkyl chain, peptides 4 were all soluble in water |  |
| H-ile-leu-Gly-his-arg-asp-tyr-lys-OH [PDC113] |  |  | activity as FP inhibitor, in words [3]: active FP inhibitor |
| N-Octadecanyl-Ile-Leu-Gly-His-Cit-Asp-Tyr-Lys-OH [L-4f] | trends suggesting protective effects; also recorded: not statistically significant | required a small amount of DMSO to completely dissolve; also recorded: aqueous solubility issues; also recorded: poorly soluble in water |  |
| CC[C@H](C)[C@H](NCC=C(C)CCC=C(C)CCC=C(C)C)C(=O)N[C@@H](CC(C)C)C(=O)NCC(=O)N[C@@H](Cc1c[nH]cn1)C(=O)N[C@@H](CCCNC(N)=O)C(=O)N[C@@H](CC(=O)O)C(=O)N[C@@H](Cc1ccc(O)cc1)C(=O)N[C@@H](CCCCN)C(=O)O [L-7, N-Farnesyl-Ile-Leu-Gly-His-Cit-Asp-Tyr-Lys-OH] (HELM PEPTIDE1{[CC[C@H](C)[C@H](NCC=C(C)CCC=C(C)CCC=C(C)C)C(=O)[*:2]].L.G.H.[Cit].D.Y.K}$$$$V2.0) | Neither PEGylated peptide L-4g nor N-farnesyl peptide L-7 exhibited activity | soluble in water |  |
| CC[C@H](C)[C@H](N)C(=O)N[C@@H](CC(C)C)C(=O)NCC(=O)N[C@@H](Cc1c[nH]cn1)C(=O)N[C@@H](CCCNC(N)=O)C(=O)N[C@@H](CC(=O)O)C(=O)N[C@@H](Cc1ccc(O)cc1)C(=O)N[C@@H](CCCCN)C(=O)O [L-PDC31, H-Ile-Leu-Gly-His-Cit-Asp-Tyr-Lys-OH] (HELM PEPTIDE1{I.L.G.H.[Cit].D.Y.K}$$$$V2.0) |  |  | time to complete degradation in mouse plasma ([4]; 5 µL 0.4 mM peptide in 95 µL serum): ≤ 5 min; stability in mouse plasma, in words ([4]; incubation up to 2 hours): rapidly degraded in plasma |
